From US10189809B2, “SGC stimulators” (Ironwood Pharmaceuticals, Inc., priority 2010, dated 2019)
Like-named read-outs stand apart in the source and are kept apart here.

Tests used:
[1] = tested on: Thoracic aortic rings; experiment: Alternative thoracic aortic rings assay (Example 19b; resting tension as 100% inhibition); design: species or system rat; conditions: Rattus norvegicus; for inhibition at 1 µM: read-out: Percent Relaxation at 1 μM; for inhibition at 3 µM: read-out: Percent Relaxation at 3 μM; for inhibition at 10 µM: read-out: Percent Relaxation at 10 μM; for EC50: read-out: Aortic Ring EC50
Method: Thoracic aortic rings were dissected from anesthetized (isoflurane) male Sprague-Dawley rats weighing 275-299 g. Tissues were immediately transferred to ice-cold Krebs-Henseleit solution, which had been aerated with 95% O2 and 5% CO2 for 30 minutes. Following removal of connective tissue, aortic sections were cut into 4 rings (˜2 mm each) and suspended on 2 L-shaped hooks, with one hook fixed at the bottom of the tissue bath (Schuler Organ Bath, Harvard Apparatus) and the other connected to a force transducer (F30 Force Transducer, Harvard Apparatus). Baths contained Krebs Henseleit solution (10 mL) heated to 37° C. and aerated with 95% O2 and 5% CO2. Rings were brought to an initial tension of 0.3-0.5 g and gradually raised to a resting tension of 1.0 g over 60 minutes. Rings were rinsed with Krebs Henseleit solution (heated to 37° C. and aerated with 95% O2 and 5% CO2) at 15 minute intervals until a stable baseline was obtained. Rings were considered to be stable after a resting tension of 1.0 g was maintained (for approximately 10 minutes) without need for adjustment. Rings were then contracted with 100 ng/mL phenylephrine by adding 100 uL of a 10 μg/mL phenylephrine stock solution. Tissues achieving a stable contraction were then treated in a cumulative, dose dependent manner with test compounds prepared in dimethylsulfoxide (DMSO). In some cases, tissues were rinsed three times over a 5 minute period with Krebs-Heinseleit's solution (heated to 37° C. and aerated with 95% O2 and 5% CO2), allowed to stabilize at baseline, and then used for characterization of other test articles or DMSO effects. All data were collected using the HSE-ACAD software provided by Harvard Apparatus. […] EC50 values were calculated from concentration-response curves generated with GraphPad Prism Software.

[2] = target: soluble guanylate cyclase (sGC) (Homo sapiens (Human), UniProt Q02108+Q02153); experiment: sGC-HEK-cGMP assay run with SNP incubation (HEK WC assay); format: cell-based; conditions: for Emax at 10 µM: read-out: HEK WC Assay (% Emax at 10 μM/with 10 uM SNP); for Emax at 30 µM: read-out: HEK WC Assay (% Emax at 30 μM/with 10 uM SNP); for EC50: in the presence of 10 uM SNP
Sequence of soluble guanylate cyclase (sGC) (Q02153 whole entry): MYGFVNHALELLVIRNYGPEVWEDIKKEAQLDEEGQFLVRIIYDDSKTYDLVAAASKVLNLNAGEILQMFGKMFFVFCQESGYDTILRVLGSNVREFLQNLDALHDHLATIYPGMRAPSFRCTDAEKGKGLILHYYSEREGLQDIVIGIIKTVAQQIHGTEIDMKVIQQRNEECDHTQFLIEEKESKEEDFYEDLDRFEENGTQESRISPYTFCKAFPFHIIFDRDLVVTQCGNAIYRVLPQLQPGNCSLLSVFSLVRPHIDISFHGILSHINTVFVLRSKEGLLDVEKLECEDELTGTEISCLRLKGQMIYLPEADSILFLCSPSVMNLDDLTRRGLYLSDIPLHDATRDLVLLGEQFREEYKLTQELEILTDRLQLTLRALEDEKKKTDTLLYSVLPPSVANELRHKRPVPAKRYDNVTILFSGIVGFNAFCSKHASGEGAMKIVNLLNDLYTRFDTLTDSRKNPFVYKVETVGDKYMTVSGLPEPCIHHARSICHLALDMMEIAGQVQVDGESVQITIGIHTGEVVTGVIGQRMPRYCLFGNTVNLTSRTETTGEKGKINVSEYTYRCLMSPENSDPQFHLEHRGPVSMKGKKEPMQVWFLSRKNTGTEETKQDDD
Sequence of soluble guanylate cyclase (sGC) (Q02108 whole entry): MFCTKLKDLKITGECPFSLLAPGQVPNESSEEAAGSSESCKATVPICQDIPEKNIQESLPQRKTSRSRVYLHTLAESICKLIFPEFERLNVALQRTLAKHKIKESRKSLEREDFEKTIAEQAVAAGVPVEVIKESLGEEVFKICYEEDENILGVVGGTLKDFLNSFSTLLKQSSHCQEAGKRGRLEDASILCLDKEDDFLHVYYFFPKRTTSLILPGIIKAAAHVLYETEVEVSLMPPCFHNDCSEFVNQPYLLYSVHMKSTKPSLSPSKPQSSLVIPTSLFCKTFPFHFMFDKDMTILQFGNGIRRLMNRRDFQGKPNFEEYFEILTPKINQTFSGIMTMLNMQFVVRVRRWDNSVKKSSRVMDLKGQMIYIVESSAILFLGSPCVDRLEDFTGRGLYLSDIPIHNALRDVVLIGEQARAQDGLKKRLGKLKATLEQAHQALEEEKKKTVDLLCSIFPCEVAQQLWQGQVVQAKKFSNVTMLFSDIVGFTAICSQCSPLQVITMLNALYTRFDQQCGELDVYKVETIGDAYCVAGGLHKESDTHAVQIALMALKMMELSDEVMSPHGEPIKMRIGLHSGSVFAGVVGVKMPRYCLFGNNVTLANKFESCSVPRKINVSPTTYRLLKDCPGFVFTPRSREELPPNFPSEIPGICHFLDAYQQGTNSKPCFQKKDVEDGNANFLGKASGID
Method: Human embryonic kidney cells (HEK293), endogenously expressing soluble guanylate cyclase (sGC), were used to evaluate the activity of test compounds. Compounds stimulating the sGC receptor should cause an increase in the intracellular concentration of cGMP. HEK 293 cells were seeded in Dulbecco's Modification of Eagle's Medium supplemented with fetal bovine serum (10% final) and L-glutamine (2 mM final) in a 200 μL volume at a density of 1×10^5 cells/well in a poly-D-lysine coated 96 well flat bottom plate and grown overnight at 37° C. Medium was aspirated and cells were washed with 1× Hank's Buffered Saline Salt Solution (200 μL). Cells were then incubated for 15 minutes at 37° C. with 0.5 mM 3-isobutyl-1-methylxanthine (200 μL). Test article and sodium nitroprusside were then added to the assay mixture (2 μL each) and incubated at 37° C. for 10 minutes. After the 10 minute incubation, the assay mixture was aspirated and 0.1M HCl (200 μL) was added to the cells. The plate was incubated at 4° C. for 30 minutes in the 0.1M HCl to stop the reaction and lysed the cells. The plates were then centrifuged at 1,200 g for 5 minutes at room temperature. Supernatants were collected and transferred to a new flat bottom 96 well plate for analysis. Vehicle controls were carried out using DMSO (1%). […] Samples were diluted with an equal volume of 1 M Ammonium Acetate (pH 7) to neutralize samples for better chromatography. […] EC50 values were calculated from concentration-response curves generated with GraphPad Prism Software.

[3] = read-out: HEK WC Assay (% Emax at 10 μM with 10 uM SNP)
[4] = read-out: HEK WC Assay (% Emax at 30 μM with 10 uM SNP)
[5] = read-out: HEK WC Assay (% Emax at 1 μM with 10 uM SNP)

EC50 ([1]; Table 10A) [µM] | Emax at 10 µM [2] [%] | Emax at 30 µM [2] [%] | EC50 [2] [µM] | Emax [2, 3] [%] | Emax [2, 4] [%] | EC50 ([1]; Table 10B) [µM] | Emax [2, 5] [%] | SMILES | inhibition at 1 µM ([1]; Table 10A) [%] | inhibition at 3 µM ([1]; Table 10A) [%] | inhibition at 10 µM ([1]; Table 10A) [%] | inhibition at 1 µM ([1]; Table 10B) [%] | inhibition at 3 µM ([1]; Table 10B) [%] | inhibition at 10 µM ([1]; Table 10B) [%]
– | – | – | – | – | – | < 2 | – | Oc1nc(-c2cc(-c3ccon3)n(Cc3ccccc3F)n2)ncc1F [Compound I-161] | – | – | – | 80 to 100 | 100 to 120 | –
– | – | – | < 20 | 60 to 80 | 60 to 80 | < 2 | 60 to 80 | Nc1nc(-c2cc(-c3ccon3)n(Cc3ccccc3F)n2)ncc1NC(=O)c1nccs1 [Compound I-189] | – | – | – | 80 to 100 | 80 to 100 | –
– | – | – | < 20 | 100 to 120 | 100 to 120 | < 2 | 80 to 100 | CC1(C(=O)Nc2cnc(-c3cc(-c4ccon4)n(Cc4ccccc4F)n3)nc2N)CC1(F)F (stereo not shown) [Compound I-245] | – | – | – | 80 to 100 | 100 to 120 | 100 to 120
– | – | – | < 20 | 40 to 60 | 80 to 100 | < 2 | – | Cc1cnc(-c2cc(-c3ccon3)n(Cc3ccccc3F)n2)nc1N [Compound I-297] | – | – | – | 20 to 40 | 60 to 80 | –
– | – | – | – | – | – | < 2 | – | Fc1ccccc1Cn1nc(-c2ncccn2)cc1-c1ccno1 [Compound I-305] | – | – | – | 40 to 60 | 80 to 100 | 100 to 120

Further lines, the compound ahead of its results:

SMILES | EC50 ([1]; Table 10A) [µM] | Emax at 10 µM [2] [%] | Emax at 30 µM [2] [%] | EC50 [2] [µM] | Emax [2, 3] [%] | Emax [2, 4] [%] | EC50 ([1]; Table 10B) [µM] | Emax [2, 5] [%] | inhibition at 1 µM ([1]; Table 10A) [%] | inhibition at 3 µM ([1]; Table 10A) [%] | inhibition at 10 µM ([1]; Table 10A) [%] | inhibition at 1 µM ([1]; Table 10B) [%] | inhibition at 3 µM ([1]; Table 10B) [%] | inhibition at 10 µM ([1]; Table 10B) [%]
Nc1nc(-c2cc(-c3ccon3)n(Cc3ccccc3F)n2)ncc1F [Compound I-109] | < 2 | – | – | – | – | – | – | – | 80 to 100 | 60 to 80 | 100 to 120 | – | – | –
CCOC(=O)c1cnc(-c2cc(-c3ccon3)n(Cc3ccccc3F)n2)nc1O [Compound I-138] | 2 to 4 | 40 to 60 | 40 to 60 | – | – | – | – | – | 20 to 40 | 40 to 60 | – | – | – | –
CCOC(=O)c1cnc(-c2cc(-c3ccon3)n(Cc3ccccc3F)n2)nc1Cl [Compound I-140] | < 2 | 60 to 80 | 40 to 60 | – | – | – | – | – | 20 to 40 | 60 to 80 | 80 to 100 | – | – | –
Nc1nc(-c2cc(-c3ccon3)n(Cc3ccccc3F)n2)ncc1NC(=O)C1CC1 [Compound I-144] | – | – | – | < 20 | 100 to 120 | 60 to 80 | < 2 | – | – | – | – | 80 to 100 | 100 to 120 | –
